What is called IC50 is the concentration that gives 50% inhibition.

Experimental findings from patent US9718782B2, “TrkA kinase inhibitors, compositions and methods thereof” (MERCK SHARP & DOHME CORP, priority 2013, dated 2017) are described below.

The target in this assay is T1, TrkA receptor (Homo sapiens, UniProt P04629).
T1 construct: host or cells: U2OS (PathHunter, 'TrkA p75' cells)
Kind of assay: DiscoverX PathHunter TrkA functional assay (NGF-stimulated U2OS cells). It counts as cell-based. Particulars: U2OS cells expressing TrkA-Prolink fusion and Shc1-EA; compound 1 hour, then EC80 NGF 3 hours; luminescence. The method, then:
TrkA functional activity was measured using a DiscoverX PathHunter assay. In this assay, U2OS cells are express TrkA receptor as a fusion with the weakly complementing fragment of B-galactosidase, which DiscoverX calls “Prolink (PK)”; additionally, Shcl is fused with a larger fragment, which is called “Enzyme Acceptor (EA)”. Activation of the TrkA receptor, upon NGF addition, results in the kinase domain being phosphorylated, resulting in subsequent recruitment of Shcl-EA protein. That recruitment results in an active B-galactosidase enzyme that is detected by addition of a chemiluminescent substrate.
All reagents were purchased from DiscoverX, except for the receptor agonists (NGF, BDNF, NT3) which were purchased from Peprotech. Cells were expanded and frozen into cryovials (TrkA p75 @passage 13, 1.5×10^7 cells/vial; TrkC p75 @passage 11, 1.5×10^7 cells/vial in InVitrogen Recovery Cell Freezing media), and stored in the vapor phase of liquid nitrogen, and thawed immediately before use. Thawed cells were added to a 384-well plate (BD Falcon 384-well white/clear, TC surface 120 uL assay plates (353963), 20 uL of 0.375e6 cells/mL=>7500 cells/well), and allowed to incubate overnight. Compound (10 mM starting dose: 202.5 nL compound yielding 0.81% DMSO final in total assay volume and starting doses 81 uM) was added the following morning and allowed to incubate on cells for 1 hour. Then, 5 uL EC80 of agonist (NGF for TrkA; BDNF for TrkB; NT3 for TrkC) was added and allowed to incubate for 3 hours at room temperature. DiscoverX PathHunter detection reagent is added (12 uL to plate and components diluted in parts as per kit instructions) and the plate is further incubated for 1 hour in the dark. The plate is read via luminescence on the Perkin Elmer Envision.

T1 sequence (P04629 33-796): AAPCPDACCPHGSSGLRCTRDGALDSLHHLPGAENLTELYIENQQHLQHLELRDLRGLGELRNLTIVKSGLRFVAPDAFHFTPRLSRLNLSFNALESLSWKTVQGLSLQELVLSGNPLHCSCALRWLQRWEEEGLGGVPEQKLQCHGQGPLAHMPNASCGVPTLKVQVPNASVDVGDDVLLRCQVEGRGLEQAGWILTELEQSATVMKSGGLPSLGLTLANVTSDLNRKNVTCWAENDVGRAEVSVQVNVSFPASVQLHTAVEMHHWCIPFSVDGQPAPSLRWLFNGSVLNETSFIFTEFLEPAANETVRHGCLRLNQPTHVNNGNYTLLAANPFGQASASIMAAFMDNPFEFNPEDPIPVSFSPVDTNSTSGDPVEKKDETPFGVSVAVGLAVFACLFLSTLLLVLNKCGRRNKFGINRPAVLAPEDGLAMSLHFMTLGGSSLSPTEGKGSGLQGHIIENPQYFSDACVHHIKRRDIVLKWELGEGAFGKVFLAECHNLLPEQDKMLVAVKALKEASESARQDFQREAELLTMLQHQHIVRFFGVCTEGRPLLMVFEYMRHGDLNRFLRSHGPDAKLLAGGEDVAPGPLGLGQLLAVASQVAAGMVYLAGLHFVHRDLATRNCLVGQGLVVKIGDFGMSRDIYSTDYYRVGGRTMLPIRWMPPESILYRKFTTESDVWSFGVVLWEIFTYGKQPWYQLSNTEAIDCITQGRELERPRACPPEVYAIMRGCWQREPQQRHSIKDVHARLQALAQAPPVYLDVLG

In turn, `Cc1nn(C)c(NC(=O)NC2c3ccccc3-c3ccccc32)c1-c1ccccc1` [Compound 10, 1-(1,3-dimethyl-4-phenyl-1H-pyrazol-5-yl)-3-(9H-fluoren-9-yl)urea] showed a 50% inhibitory concentration (IC50) of 210 nM. That is a sub-micromolar value.

In the case of `Cc1ccc(NC(=O)NC2c3ccccc3-c3ccccc32)cn1` [Compound 13, 1-(9H-fluoren-9-yl)-3-(6-methylpyridin-3-yl)urea], the IC50 stood at 2500 nM. Against the preceding molecule, the IC50 is about 12-fold higher.

As to `O=C(Nc1cncc(-c2cccnc2)c1)NC1c2ccccc2-c2ccccc21` [Compound 72, 1-(3,3′-bipyridin-5-yl)-3-(9H-fluoren-9-yl)urea], the midpoint of inhibition, the IC50, lay at 1400 nM.

Molecule `O=C(Nc1cncnc1-c1ccccc1)NC1c2ccccc2-c2ccccc21` [Compound 30, 1-(9H-fluoren-9-yl)-3-(4-phenylpyrimidin-5-yl)urea] registered an IC50 of 170 nM.

Molecule `Cc1cc(NC(=O)NC2c3ccccc3-c3ccccc32)n(-c2ccccc2)n1` [Compound 7, 1-(9H-fluoren-9-yl)-3-(3-methyl-1-phenyl-1H-pyrazol-5-yl)urea] registered a 50% inhibitory concentration (IC50) of 44 nM.

The molecule `Cc1nnc(-c2cccc(NC(=O)NC3c4ccccc4-c4ccccc43)c2)s1` [Compound 47, 1-(9H-fluoren-9-yl)-3-[3-(5-methyl-1,3,4-thiadiazol-2-yl)phenyl]urea] showed an IC50 of 970 nM.

`O=C(Nc1cccc(-c2nc(C3CC3)n[nH]2)c1)NC1c2ccccc2-c2ccccc21` [Compound 45, 1-[3-(3-cyclopropyl-1H-1,2,4-triazol-5-yl)phenyl]-3-(9H-fluoren-9-yl)urea] displayed a half-maximal inhibitory concentration (IC50) of 1400 nM.

Take `Cn1nnnc1-c1cccc(NC(=O)NC2c3ccccc3-c3ccccc32)c1` [Compound 64, 1-(9H-fluoren-9-yl)-3-[3-(l-methyl-1H-tetrazol-5-yl)phenyl]urea]: the IC50 is 330 nM.

`Cc1nnc(-c2cccc(NC(=O)NC3c4ccccc4-c4ccccc43)c2)[nH]1` [Compound 37, 1-(9H-fluoren-9-yl)-3-[3-(5-methyl-4H-1,2,4-triazol-3-yl)phenyl]urea] returned a concentration for half-maximal inhibition (IC50) of 2300 nM.

Consider `CNc1ncccc1NC(=O)NC1c2ccccc2-c2ccccc21` [Compound 26, 1-(9H-fluoren-9-yl)-3-[2-(methylamino)pyridin-3-yl]urea], for which half-maximal inhibition (IC50) was put at 520 nM.

`O=C(Nc1cc(C2CC2)nn1-c1ccccc1)NC1c2ccccc2-c2ccccc21` [Compound 19, 1-(3-cyclopropyl-1-phenyl-1H-pyrazol-5-yl)-3-(9H-fluoren-9-yl)urea] came in with a half-inhibitory concentration (IC50) of 69 nM.

Molecule `Cc1cnc(-c2ccccc2)c(NC(=O)NC2c3ccccc3-c3ccccc32)c1` [Compound 71, 1-(9H-fluoren-9-yl)-3-(5-methyl-2-phenylpyridin-3-yl)urea] showed a concentration for half-maximal inhibition (IC50) of 120 nM.

On to `O=C(Nc1ccccc1-c1ccccc1)NC1c2ccccc2-c2ccccc21` [Compound 31, 1-biphenyl-2-yl-3-(9H-fluoren-9-yl)urea], for which the IC50 worked out at 960 nM.

Take `CC(C)Cc1cc(NC(=O)NC2c3ccccc3-c3ccccc32)n(-c2ccccc2)n1` [Compound 17, 1-(9H-fluoren-9-yl)-3-[3-(2-methylpropyl)-1-phenyl-1H-pyrazol-5-yl]urea]: the half-inhibitory concentration (IC50) was found to be 200 nM. Against the preceding molecule, the IC50 is about 4.8-fold lower.

Turning to `Cn1nccc1-c1cncc(NC(=O)NC2c3ccccc3-c3ccccc32)c1` [Compound 73, 1-(9H-fluoren-9-yl)-3-[5-(1-methyl-1H-pyrazol-5-yl)pyridin-3-yl]urea], the IC50 was found to be 2800 nM. Against the preceding molecule, the IC50 is about 14-fold higher.

In turn, `O=C(Nc1c2cnc3ccccc3c2nn1-c1ccccc1)NC1c2ccccc2-c2ccccc21` [Compound 25, 1-(9H-fluoren-9-yl)-3-(2-phenyl-2H-pyrazolo[4,3-c]quinolin-3-yl)urea] displayed an IC50 of 1400 nM.

`Cc1cc(-c2ccc(F)cc2)c(NC(=O)NC2c3ccccc3-c3ccccc32)cn1` [Compound 29, 1-(9H-fluoren-9-yl)-3-[4-(4-fluorophenyl)-6-methylpyridin-3-yl]urea] showed a 50% inhibitory concentration (IC50) of 480 nM.

`Cc1cc(NC(=O)NC2c3ccccc3-c3ccccc32)n(-c2ccc(F)cc2)n1` [Compound 41, 1-(9H-fluoren-9-yl)-3-[1-(4-fluorophenyl)-3-methyl-1H-pyrazol-5-yl]urea] had an IC50 of 83 nM.

Molecule `O=C(Nc1cccnc1-c1ccccc1)NC1c2ccccc2-c2ccccc21` [Compound 11, 1-(9H-fluoren-9-yl)-3-(2-phenylpyridin-3-yl)urea] displayed a half-maximal inhibitory concentration (IC50) of 27 nM. Against the preceding molecule, the IC50 is about 3.1-fold lower.

For the molecule `COc1ccc(-c2cc(NC(=O)NC3c4ccccc4-c4ccccc43)n(-c3ccccc3)n2)cc1` [Compound 24, 1-(9H-fluoren-9-yl)-3-[3-(4-methoxyphenyl)-1-phenyl-1H-pyrazol-5-yl]urea], the concentration for half-maximal inhibition (IC50) is 550 nM.

For `O=C(Nc1cccc(-c2nnc[nH]2)c1)NC1c2ccccc2-c2ccccc21` [Compound 48, 1-(9H-fluoren-9-yl)-3-[3-(4H-1,2,4-triazol-3-yl)phenyl]urea], the concentration for half-maximal inhibition (IC50) was 360 nM.

Regarding `O=C(Nc1c(-c2ccccc2)nc2sccn12)NC1c2ccccc2-c2ccccc21` [Compound 6, 1-(9H-fluoren-9-yl)-3-(6-phenylimidazo [2,1-b][1,3]thiazol-5-yl)urea], the half-maximal inhibitory concentration (IC50) was 35 nM.

As for `O=C(Nc1c(-c2ccco2)nc2ccccn12)NC1c2ccccc2-c2ccccc21` [Compound 68, 1-(9H-fluoren-9-yl)-3-(2-furan-2-ylimidazo[1,2-a]pyridin-3-yl)urea], the IC50 is 970 nM.

Turning to `O=C(Nc1cccnc1-c1ccncc1)NC1c2ccccc2-c2ccccc21` [Compound 50, 1-(2,4′-bipyridin-3-yl)-3-(9H-fluoren-9-yl)urea], the IC50 was found to be 880 nM.

For `Cc1ccc(NC(=O)NC2c3ccccc3-c3ccccc32)c(-c2ccccc2)n1` [Compound 1, 1-(9H-fluoren-9-yl)-3-(6-methyl-2-phenylpyridin-3-yl)urea], the half-maximal inhibitory concentration (IC50) worked out at 69 nM.

Molecule `O=C(Nc1cccnc1C1CCCCC1)NC1c2ccccc2-c2ccccc21` [Compound 40, 1-(2-cyclohexylpyridin-3-yl)-3-(9H-fluoren-9-yl)urea] returned an IC50 of 200 nM.

Take `Cc1nc(-c2cccc(NC(=O)NC3c4ccccc4-c4ccccc43)c2)oc1C` [Compound 65, 1-[3-(4,5-dimethyl-1,3-oxazol-2-yl)phenyl]-3-(9H-fluoren-9-yl)urea]: half-maximal inhibition (IC50) was put at 310 nM.

For the molecule `O=C(Nc1ncnn1-c1ccccc1)NC1c2ccccc2-c2ccccc21` [Compound 67, 1-(9H-fluoren-9-yl)-3-(1-phenyl-1H-1,2,4-triazol-5-yl)urea], it took 4800 nM to reach half-maximal inhibition (IC50).

As for `O=C(Nc1cccnc1-n1cccn1)NC1c2ccccc2-c2ccccc21` [Compound 83, 1-(9H-fluoren-9-yl)-3-[2-(1H-pyrazol-1-yl)pyridin-3-yl]urea], half-maximal inhibition (IC50) was put at 3000 nM. Against the preceding molecule, the IC50 is about 1.6-fold lower.

On to `Cc1nnnn1-c1cccc(NC(=O)NC2c3ccccc3-c3ccccc32)c1` [Compound 33, 1-(9H-fluoren-9-yl)-3-[3-(5-methyl-1H-tetrazol-1-yl)phenyl]urea], for which the midpoint of inhibition, the IC50, lay at 1700 nM.

For `O=C(Nc1cccc(-n2cnnn2)c1)NC1c2ccccc2-c2ccccc21` [Compound 57, 1-(9H-fluoren-9-yl)-3-[3-(1H-tetrazol-1-yl)phenyl]urea], the half-maximal inhibitory concentration (IC50) was determined as 1300 nM.

For the molecule `O=C(Nc1c(-c2ccccc2)nc2ccccn12)NC1c2ccccc2-c2ccccc21` [Compound 21, 1-(9H-fluoren-9-yl)-3-(2-phenylimidazo [1,2-a]pyridin-3-yl)urea], inhibition was half-maximal at 28 nM (IC50).

As for `Cc1nc(NC(=O)NC2c3ccccc3-c3ccccc32)n(-c2ccccc2)n1` [Compound 78, 1-(9H-fluoren-9-yl)-3-(3-methyl-1-phenyl-1H-1,2,4-triazol-5-yl)urea], 520 nM corresponded to half-maximal inhibition (IC50). This IC50 is about 19-fold higher than that of the molecule before.

Turning to `Cc1nc(-c2ccccc2)c(NC(=O)NC2c3ccccc3-c3ccccc32)o1` [Compound 81, 1-(9H-fluoren-9-yl)-3-(2-methyl-4-phenyl-1,3-oxazol-5-yl)urea], the IC50 turned out to be 3900 nM.

`O=C(Nc1cccnc1-c1ccnc(F)c1)NC1c2ccccc2-c2ccccc21` [Compound 53, 1-(9H-fluoren-9-yl)-3-(2′-fluoro-2,4′-bipyridin-3-yl)urea] registered an IC50 of 540 nM.

Turning to `Cc1nn(-c2ccc(F)cc2)c(NC(=O)NC2c3ccccc3-c3ccccc32)c1C#N` [Compound 23, 1-[4-cyano-1-(4-fluorophenyl)-3-methyl-1H-pyrazol-5-yl]-3-(9H-fluoren-9-yl)urea], the concentration for half-maximal inhibition (IC50) is 330 nM.

`O=C(Nc1cccnc1-c1ccco1)NC1c2ccccc2-c2ccccc21` [Compound 54, 1-(9H-fluoren-9-yl)-3-(2-furan-2-ylpyridin-3-yl)urea] showed an IC50 of 2800 nM.

`Cn1ncnc1-c1cccc(NC(=O)NC2c3ccccc3-c3ccccc32)c1` [Compound 79, 1-(9H-fluoren-9-yl)-3-[3-(1-methyl-1H-1,2,4-triazol-5-yl)phenyl]urea] showed a concentration for half-maximal inhibition (IC50) of 73 nM.

`O=C(Nc1cccnc1-c1ccc(F)cc1)NC1c2ccccc2-c2ccccc21` [Compound 52, 1-(9H-fluoren-9-yl)-3-[2-(4-fluorophenyl)pyridin-3-yl]urea] displayed an IC50 of 100 nM.

`O=C(Nc1ccnc(-c2ccccc2)c1)NC1c2ccccc2-c2ccccc21` [Compound 80, 1-(9H-fluoren-9-yl)-3-(2-phenylpyridin-4-yl)urea]: the IC50 came to 670 nM.
